This is an account of results in patent US20250154169A1, “COMPOUNDS AND METHODS FOR MODULATING SPLICING” (REMIX THERAPEUTICS INC., priority 2021, published 2025).

Type in all cases: cell-based, human
The test system of one experiment is Target C mRNA. Nature of the experiment: Splicing RT-qPCR gene panel, Target C canonical junction (CJ) mRNA. As to conditions: Homo sapiens, Tables 4A/4B, read-out: Target C (IC50, decrease in CJ mRNA, gene panel). Summed up:
(§1)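 First, A673 cells adhered 24 h before dosing, while K562 cells were plated and dosed directly. Both lines were then exposed to compound for 24 h at 37 °C, 5% CO2, top concentration 10 uM. Finally, lysates underwent RT-qPCR of the canonical junction, with ΔΔCt-based relative quantification.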
(Quantitative PCR measures a nucleic acid by following its amplification.)

For experiment [1], the system named is HTT mRNA. Description: Splicing RT-qPCR assay, HTT canonical (CJ) and alternative (AJ) junction mRNA. The following applies: Homo sapiens, A673 or K562 cells, 24 hours compound treatment; for IC50: 24 h, read-out: HTT CJ (IC50, decrease in canonical junction mRNA); for AC50: read-out: HTT AJ (AC50, increase in alternative junction mRNA). In a few lines: (§2)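 One-step RT-qPCR on cell lysates, CJ and AJ isoforms quantified; housekeeping normalization GAPDH/GUSB (K562) or PPIA (A673). Cells: A673 in DMEM/10% FBS or K562 in IMDM/10% FBS. Compounds 11-pt 3-fold, top 10 uM, 24 h, 37 °C, 5% CO2.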

The subject of a further experiment is MYB mRNA. Description: Splicing RT-qPCR assay, MYB canonical (CJ) and alternative (AJ) junction mRNA. As to conditions: Homo sapiens; for AC50: read-out: MYB AJ (AC50, increase in alternative junction mRNA). In a few lines:
as §2

In experiment [2] the test system is HTT mRNA. Description: Splicing RT-qPCR gene panel, HTT canonical junction (CJ) mRNA. As to conditions: Homo sapiens, Tables 4A/4B, read-out: HTT (IC50, decrease in CJ mRNA, gene panel). In a few lines:
as §1

In another experiment the test system is SMN2 mRNA. Description: Splicing RT-qPCR gene panel, SMN2 canonical junction (CJ) mRNA. As to conditions: Homo sapiens, Tables 4A/4B, read-out: SMN2 (IC50, decrease in CJ mRNA, gene panel). In a few lines: as §1
Setting [3] is: 24 h, A673 or K562 cells, 24 hours compound treatment, RT-qPCR.
The mark [4] stands for this setting: 24 h, A673 or K562 cells, 24 hours compound treatment, RT-qPCR, read-out: MYB CJ (IC50, decrease in canonical junction mRNA).
Setting [5] is: Tables 4A/4B, canonical junction qPCR panel, read-out: MYB (IC50, decrease in CJ mRNA, gene panel).

Usually IC50 stands for the concentration needed to halve the response being measured. By AC50 is commonly meant the concentration at which the activity in the assay is half-maximal.

Where a name gives a salt, the structure may show the parent alone. Read-outs that look alike come from different tables or passages of the source. Where only a bound is given, the exact number is not on record here.

In the case of `Cc1cn2cc(NC(=O)c3ccc(N4CCNCC4)c4cn(C)nc34)nc(C)c2n1` [Compound 293, N-{2,8-dimethylimidazo[1,2-a]pyrazin-6-yl}-2-methyl-4-(piperazin-1-yl)indazole-7-carboxamide], the half-maximal inhibitory concentration (IC50) with Target C mRNA is over 10000 nM; in the experiment with HTT mRNA [1], 1000 to 10000 nM; in the experiment on MYB mRNA (setting [4]), under 100 nM; in the experiment on MYB mRNA (setting [5]), under 100 nM; in the experiment with HTT mRNA [2], 1000 to 10000 nM; with SMN2 mRNA, under 100 nM. In addition, the AC50 is 100 to 1000 nM with HTT mRNA [1] and under 100 nM with MYB mRNA (setting [3]).

Consider `Cc1cn2cc(NC(=O)c3ccc(N4CCNCC4)c4cn(C5CC5)nc34)cc(F)c2n1` [Compound 294, 2-cyclopropyl-N-{8-fluoro-2-methylimidazo[1,2-a]pyridin-6-yl}-4-(piperazin-1-yl) indazole-7-carboxamide], for which the half-maximal inhibitory concentration (IC50) in the experiment on Target C mRNA was over 10000 nM; with HTT mRNA [1], 100 to 1000 nM; in the experiment with MYB mRNA (setting [4]), under 100 nM; in the experiment with MYB mRNA (setting [5]), under 100 nM; in the experiment with HTT mRNA [2], 100 to 1000 nM; in the experiment with SMN2 mRNA, under 100 nM. The results for the AC50 in the experiment on HTT mRNA [1] and in the experiment on MYB mRNA (setting [3]) were 1000 to 10000 nM and under 100 nM, respectively.

For the compound `Cc1cn2cc(NC(=O)c3ccc(N4CCNCC4)c4cn(C5COC5)nc34)cc(F)c2n1` [Compound 295, N-{8-fluoro-2-methylimidazo[1,2-a]pyridin-6-yl}-2-(oxetan-3-yl)-4-(piperazin-1-yl)indazole-7-carboxamide], the IC50 with Target C mRNA is over 10000 nM; in the experiment on HTT mRNA [1], over 10000 nM; with MYB mRNA (setting [4]), 100 to 1000 nM; with MYB mRNA (setting [5]), 100 to 1000 nM; in the experiment with HTT mRNA [2], over 10000 nM; in the experiment with SMN2 mRNA, under 100 nM. Besides, the AC50 with HTT mRNA [1] was in the range of 1000 to 10000 nM; in the experiment with MYB mRNA (setting [3]), 100 to 1000 nM.

With `Cc1cn2cc(NC(=O)c3ccc(N4CCC(NC5CC5)C4)c4cn(C)nc34)cc(F)c2n1` (centres unmarked) [Compound 296, 4-[3-(cyclopropylamino)pyrrolidin-1-yl]-N-{8-fluoro-2-methylimidazo[1,2-a]pyridin-6-yl}-2-methylindazole-7-carboxamide], the half-maximal inhibitory concentration (IC50) was over 10000 nM with Target C mRNA; over 10000 nM in the experiment on HTT mRNA [1]; under 100 nM in the experiment on MYB mRNA (setting [4]); under 100 nM with MYB mRNA (setting [5]); over 10000 nM in the experiment with HTT mRNA [2]; under 100 nM with SMN2 mRNA. The AC50 in the experiment on HTT mRNA [1] was over 10000 nM; with MYB mRNA (setting [3]) it was under 100 nM.

For the compound `Cc1cn2cc(NC(=O)c3ccc(N4CCNCC4)c4c(C)n(C)nc34)cc(F)c2n1` [Compound 297], the IC50 in the experiment with Target C mRNA was in the range of 1000 to 10000 nM; in the experiment on HTT mRNA [1] it was 1000 to 10000 nM; with MYB mRNA (setting [4]), 1000 to 10000 nM; in the experiment on MYB mRNA (setting [5]) it was 1000 to 10000 nM; with HTT mRNA [2], 1000 to 10000 nM; with SMN2 mRNA, 100 to 1000 nM. Moreover, the half-maximal activity concentration (AC50) with HTT mRNA [1] and with MYB mRNA (setting [3]) was 1000 to 10000 nM throughout.

Turning to `CNC1CCN(c2ccc(C(=O)Nc3cc(F)c4nc(C)cn4c3)c3nn(C)cc23)C1` (centres unmarked) [Compound 298, N-{8-fluoro-2-methylimidazo[1,2-a]pyridin-6-yl}-2-methyl-4-[3-(methylamino)pyrrolidin-1-yl]indazole-7-carboxamide trifluoroacetic acid salt], the IC50 in the experiment with Target C mRNA is 1000 to 10000 nM; in the experiment with HTT mRNA [1] it was 1000 to 10000 nM; in the experiment on MYB mRNA (setting [4]), under 100 nM; in the experiment on MYB mRNA (setting [5]) it was under 100 nM; with HTT mRNA [2], 1000 to 10000 nM; in the experiment on SMN2 mRNA, under 100 nM. The half-maximal activity concentration (AC50) in the experiment on HTT mRNA [1] was 1000 to 10000 nM; in the experiment with MYB mRNA (setting [3]) it was 100 to 1000 nM.

As to `Cc1cn2cc(NC(=O)c3ccc(N4CCC5(CCN5)C4)c4cn(C)nc34)cc(F)c2n1` (centres unmarked) [Compound 299, 4-{1,6-diazaspiro[3.4]octan-6-yl}-N-{8-fluoro-2-methylimidazo[1,2-a]pyridin-6-yl}-2-methylindazole-7-carboxamide], the half-maximal inhibitory concentration (IC50) was over 10000 nM in the experiment with Target C mRNA; over 10000 nM with HTT mRNA [1]; 100 to 1000 nM with MYB mRNA (setting [4]); 100 to 1000 nM in the experiment with MYB mRNA (setting [5]); over 10000 nM in the experiment with HTT mRNA [2]; under 100 nM with SMN2 mRNA. The concentration at half-maximal activity (AC50) was over 10000 nM in the experiment with HTT mRNA [1] and 100 to 1000 nM in the experiment with MYB mRNA (setting [3]).

In the case of `Cc1cn2cc(NC(=O)c3cc(C)c(N4CCNCC4)c4cn(C)nc34)cc(F)c2n1` [Compound 300], the half-inhibitory concentration (IC50) in the experiment on Target C mRNA was over 10000 nM; with HTT mRNA [1] it was over 10000 nM; in the experiment on MYB mRNA (setting [4]), 1000 to 10000 nM; with MYB mRNA (setting [5]), 1000 to 10000 nM; with HTT mRNA [2] it was over 10000 nM; in the experiment on SMN2 mRNA, 100 to 1000 nM. Also, the AC50 is over 10000 nM in the experiment with HTT mRNA [1] and 100 to 1000 nM in the experiment on MYB mRNA (setting [3]).

Turning to `Cc1cn2cc(NC(=O)c3ccc(N4CCC5(CCN5)CC4)c4cn(C)nc34)cc(F)c2n1` [Compound 301, 4-{1,7-diazaspiro[3.5]nonan-7-yl}-N-{8-fluoro-2-methylimidazo[1,2-a]pyridin-6-yl}-2-methylindazole-7-carboxamide trifluoroacetic acid salt], the IC50 with Target C mRNA was 1000 to 10000 nM; with HTT mRNA [1], 100 to 1000 nM; with MYB mRNA (setting [4]), under 100 nM; with MYB mRNA (setting [5]) it was under 100 nM; in the experiment on HTT mRNA [2], 100 to 1000 nM; in the experiment on SMN2 mRNA it was under 100 nM. The results for the AC50 in the experiment with HTT mRNA [1] and with MYB mRNA (setting [3]) were 100 to 1000 nM and under 100 nM, respectively.

As for `COCCCn1cc2c(N3CCNCC3)ccc(C(=O)Nc3cc(F)c4nc(C)cn4c3)c2n1` [Compound 302, N-{8-fluoro-2-methylimidazo[1,2-a]pyridin-6-yl}-2-(3-methoxypropyl)-4-(piperazin-1-yl)indazole-7-carboxamide], the half-inhibitory concentration (IC50) in the experiment with Target C mRNA was over 10000 nM; with HTT mRNA [1], 1000 to 10000 nM; in the experiment with MYB mRNA (setting [4]), under 100 nM; in the experiment with MYB mRNA (setting [5]), under 100 nM; in the experiment on HTT mRNA [2], 1000 to 10000 nM; in the experiment with SMN2 mRNA, under 100 nM. Moreover, the AC50 in the experiment on HTT mRNA [1] is 1000 to 10000 nM; with MYB mRNA (setting [3]), under 100 nM.

For the compound `Cc1cn2cc(NC(=O)c3cc(F)c(N4CCNCC4)c4cn(C)nc34)cc(F)c2n1` [Compound 303, 5-fluoro-N-{8-fluoro-2-methylimidazo[1,2-a]pyridin-6-yl}-2-methyl-4-(piperazin-1-yl)indazole-7-carboxamide], the IC50 was over 10000 nM in the experiment with Target C mRNA; 1000 to 10000 nM in the experiment on HTT mRNA [1]; 100 to 1000 nM with MYB mRNA (setting [4]); 100 to 1000 nM in the experiment with MYB mRNA (setting [5]); 1000 to 10000 nM in the experiment on HTT mRNA [2]; under 100 nM with SMN2 mRNA. Besides, the AC50 with HTT mRNA [1] was in the range of 1000 to 10000 nM; in the experiment with MYB mRNA (setting [3]) it was 100 to 1000 nM.

In the case of `Cc1cn2cc(NC(=O)c3ccc(N4CCNCC4)c4cn(C5CCOCC5)nc34)cc(F)c2n1` [Compound 304, N-{8-fluoro-2-methylimidazo[1,2-a]pyridin-6-yl}-2-(oxan-4-yl)-4-(piperazin-1-yl) indazole-7-carboxamide trifluoroacetic acid salt], the half-inhibitory concentration (IC50) with Target C mRNA is over 10000 nM; in the experiment on HTT mRNA [1] it was 1000 to 10000 nM; with MYB mRNA (setting [4]), 100 to 1000 nM; in the experiment on MYB mRNA (setting [5]) it was 100 to 1000 nM; with HTT mRNA [2], 1000 to 10000 nM; in the experiment with SMN2 mRNA it was under 100 nM. Further, the results for the AC50 with HTT mRNA [1] and in the experiment on MYB mRNA (setting [3]) were over 10000 nM and 100 to 1000 nM, respectively.

On to `Cc1cn2cc(NC(=O)c3ccc(N4CCNCC4)c4cn(CCF)nc34)cc(F)c2n1` [Compound 305, N-{8-fluoro-2-methylimidazo[1,2-a]pyridin-6-yl}-2-(2-fluoroethyl)-4-(piperazin-1-yl)indazole-7-carboxamide], for which the IC50 in the experiment with Target C mRNA is over 10000 nM; with HTT mRNA [1], 1000 to 10000 nM; with MYB mRNA (setting [4]), 100 to 1000 nM; with MYB mRNA (setting [5]), 100 to 1000 nM; in the experiment with HTT mRNA [2], 1000 to 10000 nM; in the experiment with SMN2 mRNA it was under 100 nM. Besides, the figures for the half-maximal activity concentration (AC50) with HTT mRNA [1] and in the experiment with MYB mRNA (setting [3]) were 1000 to 10000 nM and 100 to 1000 nM, respectively.
